Article PMC9151520 (Archives of Toxicology, 2022)
“And” between values parts separate entries of the source, which are not always exact repeats. Equal values may be shown once. Read-outs that look alike come from different tables or passages of the source.

Experiments:
[1] = test system: p53 signaling (p53RE-bla HCT-116 cells); assay: cells; format: cell-based
[2] = test system: p53 signaling (p53RE-bla HCT-116 cells)
[3] = test system: p53 signaling (p53RE-bla HCT-116 cells); remark: listed apart in the source
[4] = read-out: EC50, p53 activation, primary screening
[5] = read-out: EC50, viability, cherry pick confirmation
[6] = read-out: p53 activation EC50, cherry pick confirmation
[7] = read-out: p53 activation EC50, primary screening
[8] = read-out: Viability EC50, cherry pick confirmation

COc1cccc2c1cc([N+](=O)[O-])c1c(C(=O)[O-])cc3c(c12)OCO3.[Na+] [Sodium aristolochate-I]
inactive: EC50, p53 activation, cherry pick confirmation [1] | Efficacy, p53 activation, cherry pick confirmation [1] | EC50, p53 activation, cherry pick confirmation [2] | EC50, p53 activation, primary screening [2] | Efficacy, p53 activation, cherry pick confirmation [2] | Efficacy, p53 activation, primary screening [2] | EC50, p53 activation, cherry pick confirmation [3] | EC50, p53 activation, primary screening [3] | Efficacy, p53 activation, cherry pick confirmation [3] | Efficacy, p53 activation, primary screening [3] | EC50, viability, cherry pick confirmation (p53RE-bla HCT-116 cells) | EC50, viability, primary screening (p53RE-bla HCT-116 cells) | Efficacy, viability, primary screening (p53RE-bla HCT-116 cells)
3.65 µM: EC50 [1, 4]
50.4333: Efficacy, p53 activation, primary screening [1]
9.67 µM: EC50 (p53RE-bla HCT-116 cells; [5])

Oc1c(Cl)cc(Cl)cc1Sc1cc(Cl)cc(Cl)c1O [Sodium bithionolate]
17.3 µM: EC50 [1, 4]
34.4493: Efficacy, p53 activation, primary screening [1]
43.5 µM and 45.5 µM: EC50 (p53RE-bla HCT-116 cells; read-out: EC50, viability, primary screening)
inactive: EC50, p53 activation, cherry pick confirmation [1] | Efficacy, p53 activation, cherry pick confirmation [1] | EC50, p53 activation, cherry pick confirmation [2] | EC50, p53 activation, primary screening [2] | Efficacy, p53 activation, cherry pick confirmation [2] | Efficacy, p53 activation, primary screening [2] | EC50, p53 activation, cherry pick confirmation [3] | EC50, p53 activation, primary screening [3] | Efficacy, p53 activation, cherry pick confirmation [3] | Efficacy, p53 activation, primary screening [3] | EC50, viability, cherry pick confirmation (p53RE-bla HCT-116 cells) | EC50, viability, primary screening (p53RE-bla HCT-116 cells)
46.5 µM and 39.1 µM: EC50 (p53RE-bla HCT-116 cells; [5])

CC(C)CP(=S)([S-])CC(C)C.[Na+] [Sodium diisobutyldithiophosphinate]
inactive: p53 activation EC50, primary screening [1] | p53 activation efficacy, primary screening [1] | p53 activation EC50, cherry pick confirmation [2] | p53 activation efficacy, cherry pick confirmation [2] | p53 activation EC50, cherry pick confirmation [3] | p53 activation efficacy, cherry pick confirmation [3] | Viability EC50, cherry pick confirmation (p53RE-bla HCT-116 cells) | Viability EC50, primary screening (p53RE-bla HCT-116 cells) | Viability efficacy, cherry pick confirmation (p53RE-bla HCT-116 cells) | Viability efficacy, primary screening (p53RE-bla HCT-116 cells)
2.22 µM: EC50 [1, 6]
36.227: p53 activation efficacy, cherry pick confirmation [1]

NS(=O)(=O)O [Sulfamic acid]
24.2 µM: EC50 [2, 7]
inactive: p53 activation EC50, cherry pick confirmation [1] | p53 activation EC50, primary screening [1] | p53 activation efficacy, cherry pick confirmation [1] | p53 activation efficacy, primary screening [1] | p53 activation EC50, cherry pick confirmation [2] | p53 activation efficacy, cherry pick confirmation [2] | p53 activation EC50, cherry pick confirmation [3] | p53 activation EC50, primary screening [3] | p53 activation efficacy, cherry pick confirmation [3] | Viability EC50, cherry pick confirmation (p53RE-bla HCT-116 cells) | Viability EC50, primary screening (p53RE-bla HCT-116 cells) | Viability efficacy, cherry pick confirmation (p53RE-bla HCT-116 cells) | Viability efficacy, primary screening (p53RE-bla HCT-116 cells)

CCCSP(=S)(OCC)Oc1ccc(SC)cc1 (stereo not shown) [Sulprofos]
6.95 µM: EC50 [2, 6]
inactive: p53 activation EC50, cherry pick confirmation [1] | p53 activation EC50, primary screening [1] | p53 activation efficacy, cherry pick confirmation [1] | p53 activation efficacy, primary screening [1] | p53 activation EC50, cherry pick confirmation [3] | Viability EC50, cherry pick confirmation (p53RE-bla HCT-116 cells) | Viability EC50, primary screening (p53RE-bla HCT-116 cells) | Viability efficacy, cherry pick confirmation (p53RE-bla HCT-116 cells) | Viability efficacy, primary screening (p53RE-bla HCT-116 cells)

CCOC(=O)NC(=S)Nc1ccccc1NC(=S)NC(=O)OCC [Thiophanate]
41 µM: EC50 ([1]; Homo sapiens, HCT-116, read-out: EC50, p53 activation, primary screening)
inactive: EC50, p53 activation, cherry pick confirmation [1] | Efficacy, p53 activation, cherry pick confirmation [1] | EC50, p53 activation, cherry pick confirmation [2] | EC50, p53 activation, primary screening [2] | Efficacy, p53 activation, cherry pick confirmation [2] | Efficacy, p53 activation, primary screening [2] | EC50, p53 activation, cherry pick confirmation [3] | EC50, p53 activation, primary screening [3] | Efficacy, p53 activation, cherry pick confirmation [3] | Efficacy, p53 activation, primary screening [3] | EC50, viability, cherry pick confirmation (p53RE-bla HCT-116 cells) | EC50, viability, primary screening (p53RE-bla HCT-116 cells) | Efficacy, viability, cherry pick confirmation (p53RE-bla HCT-116 cells) | Efficacy, viability, primary screening (p53RE-bla HCT-116 cells)
70.2%: Emax ([1]; Homo sapiens, HCT-116, read-out: Efficacy, p53 activation, primary screening)

CCOC(=O)c1c(N)sc2c1CCN(Cc1ccccc1)C2 [Tinoridine]
inactive: p53 activation EC50 [1] | p53 activation efficacy [1] | p53 activation EC50 [2] | p53 activation EC50 [3] | Viability EC50 (p53RE-bla HCT-116 cells) | Viability efficacy (p53RE-bla HCT-116 cells)

O=C(O)Cc1cc(I)c(Oc2ccc(O)c(I)c2)c(I)c1 [Tiratricol]
inactive: p53 activation EC50 [2] | p53 activation efficacy [2] | p53 activation EC50 [3] | p53 activation efficacy [3] | Viability EC50 (p53RE-bla HCT-116 cells) | Viability efficacy (p53RE-bla HCT-116 cells)
79.5057 and 58.391: p53 activation efficacy [1]
16.5 µM: EC50 ([1]; Homo sapiens, HCT-116, read-out: p53 activation EC50)
10.7 µM: EC50 ([1]; read-out: p53 activation EC50)

CC(=O)[O][Sn]([c]1ccccc1)([c]1ccccc1)[c]1ccccc1 [Triphenyltin acetate]
14.4 µM: EC50 [1, 6]
5.39 µM and 7.79 µM and 6.43 µM: EC50 (p53RE-bla HCT-116 cells; read-out: Viability EC50, primary screening)
5.01 µM and 5.33 µM and 6.71 µM: EC50 (p53RE-bla HCT-116 cells; [8])
86.4573: p53 activation efficacy, primary screening [1]
inactive: p53 activation EC50, cherry pick confirmation [2] | p53 activation EC50, primary screening [2] | p53 activation efficacy, cherry pick confirmation [2] | p53 activation efficacy, primary screening [2] | p53 activation EC50, cherry pick confirmation [3] | p53 activation EC50, primary screening [3] | p53 activation efficacy, cherry pick confirmation [3] | p53 activation efficacy, primary screening [3]
22 µM: EC50 [1, 7]
67.021: p53 activation efficacy, cherry pick confirmation [1]

[F][Sn]([c]1ccccc1)([c]1ccccc1)[c]1ccccc1 [Triphenyltin fluoride]
7.69 µM: EC50 [1, 7]
73.0027: p53 activation efficacy, cherry pick confirmation [1]
inactive: p53 activation EC50, cherry pick confirmation [2] | p53 activation EC50, primary screening [2] | p53 activation efficacy, cherry pick confirmation [2] | p53 activation efficacy, primary screening [2] | p53 activation EC50, cherry pick confirmation [3] | p53 activation EC50, primary screening [3] | p53 activation efficacy, cherry pick confirmation [3] | p53 activation efficacy, primary screening [3]
3.63 µM and 5.54 µM and 3.92 µM: EC50 (p53RE-bla HCT-116 cells; [8])
39.9627: p53 activation efficacy, primary screening [1]
17.8 µM: EC50 [1, 6]

O=c1n(CC2CO2)c(=O)n(CC2CO2)c(=O)n1CC1CO1 (stereo not shown) [Tris(2,3-epoxypropyl)isocyanurate]
23.7 µM: EC50 [1, 7]
90.7567: p53 activation efficacy, cherry pick confirmation [1]
27.9 µM: EC50 [1, 6]
inactive: p53 activation EC50, cherry pick confirmation [2] | p53 activation EC50, primary screening [2] | p53 activation efficacy, cherry pick confirmation [2] | p53 activation efficacy, primary screening [2] | p53 activation EC50, cherry pick confirmation [3] | p53 activation EC50, primary screening [3] | p53 activation efficacy, cherry pick confirmation [3] | p53 activation efficacy, primary screening [3] | Viability EC50, cherry pick confirmation (p53RE-bla HCT-116 cells) | Viability EC50, primary screening (p53RE-bla HCT-116 cells) | Viability efficacy, cherry pick confirmation (p53RE-bla HCT-116 cells) | Viability efficacy, primary screening (p53RE-bla HCT-116 cells)
99.0367: p53 activation efficacy, primary screening [1]
